{
  "source": "paper PMC7503225",
  "about": "“Repositioning Dequalinium as Potent Muscarinic Allosteric Ligand by Combining Virtual Screening Campaigns and Experimental Binding Assays” (International Journal of Molecular Sciences, 2020)",
  "key": {"hM3 muscarinic receptor": {"target": "T1, hM3 muscarinic receptor (Homo sapiens, UniProt P20309)", "T1 construct": "expressed in transfected cells; host or cells: CHO cells, stably transfected; membrane fractions", "T1 sequence (P20309 whole entry)": "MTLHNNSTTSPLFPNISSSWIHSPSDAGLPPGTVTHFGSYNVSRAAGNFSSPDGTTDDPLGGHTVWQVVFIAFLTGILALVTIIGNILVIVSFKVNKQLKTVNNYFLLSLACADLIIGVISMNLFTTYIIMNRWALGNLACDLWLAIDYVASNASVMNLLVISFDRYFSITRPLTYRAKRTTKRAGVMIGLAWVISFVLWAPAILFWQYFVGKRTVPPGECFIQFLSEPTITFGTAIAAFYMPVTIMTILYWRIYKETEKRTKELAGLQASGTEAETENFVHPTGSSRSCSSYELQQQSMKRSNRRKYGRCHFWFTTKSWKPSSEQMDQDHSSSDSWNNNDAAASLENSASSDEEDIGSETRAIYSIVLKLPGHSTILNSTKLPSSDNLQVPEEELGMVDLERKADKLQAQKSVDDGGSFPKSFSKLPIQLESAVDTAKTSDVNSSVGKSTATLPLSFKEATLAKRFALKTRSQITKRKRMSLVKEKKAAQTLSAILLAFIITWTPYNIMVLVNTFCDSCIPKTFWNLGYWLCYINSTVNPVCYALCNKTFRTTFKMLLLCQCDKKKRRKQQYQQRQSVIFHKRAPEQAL", "assay": "Equilibrium inhibition binding with [3H]-NMS, CHO cell membranes", "settings": "[3H]-NMS 0.2 nM, mean ± SEM of 3-4 experiments, read-out: pKi hM3 (converted)", "description": "(§1) All tested compounds were purchased from Merck KGaA (Darmstadt, Germany). The radioligand binding experiments were performed with membranes from Chinese Hamster Ovary (CHO) cells stably transfected with the five cloned human muscarinic receptor subtypes (hM1-5). Membrane fractions were prepared according to the protocol, which have been previously described; membranes were stored at −80 °C until use. Nonspecific binding was defined by the radioactivity bound in the presence of 10 µM atropine.\n(§2) Aliquots of membranes (25–70 µg/mL) were added and incubated for 2 h at room temperature, filtered through UniFilter GF/B plates (PerkinElmer Life and Analytical Science, Monza, Italy) using a FilterMate cell harvester (PerkinElmer Life and Analytical Science, Monza, Italy). The filters were washed several times with ice-cold MilliQ water. Then, the plates were counted in a β-counter (TopCount NXT microplate scintillation counter, PerkinElmer Life and Analytical Science, Monza, Italy).\n(§3) Data points from radioligand inhibition binding curve were fitted to models using nonlinear regression equation to determine inhibitor potency (IC50) estimates, which were then converted to Ki values as appropriate.\n(§4) All the results are expressed as means ± SEM obtained from 3-4 independent experiments each one performed in duplicate."}, "hM1 muscarinic receptor": {"target": "T2, hM1 muscarinic receptor (Homo sapiens, UniProt P11229)", "T2 construct": "expressed in transfected cells; host or cells: CHO cells, stably transfected; membrane fractions", "T2 sequence (P11229 1-460)": "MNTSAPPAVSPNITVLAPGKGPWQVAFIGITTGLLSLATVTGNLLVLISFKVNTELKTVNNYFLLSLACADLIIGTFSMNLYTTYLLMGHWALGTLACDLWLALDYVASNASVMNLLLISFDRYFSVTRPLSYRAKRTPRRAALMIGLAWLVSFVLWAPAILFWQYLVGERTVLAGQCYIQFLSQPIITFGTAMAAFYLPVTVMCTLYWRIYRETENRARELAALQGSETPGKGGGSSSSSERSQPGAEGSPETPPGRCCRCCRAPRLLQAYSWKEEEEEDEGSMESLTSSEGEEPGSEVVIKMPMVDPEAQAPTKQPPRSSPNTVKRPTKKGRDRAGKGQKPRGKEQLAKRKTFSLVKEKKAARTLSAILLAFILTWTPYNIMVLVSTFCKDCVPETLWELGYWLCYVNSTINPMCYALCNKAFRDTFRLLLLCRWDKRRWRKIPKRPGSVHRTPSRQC", "assay": "Equilibrium inhibition binding with [3H]-NMS, CHO cell membranes", "settings": "[3H]-NMS 0.2 nM, mean ± SEM of 3-4 experiments, read-out: pKi hM1 (converted)", "description": "as §1, §2, §3, §4"}, "[1]": {"target": "T3, [3H]-NMS-occupied muscarinic hM5 subtype (Homo sapiens, UniProt P08912)", "T3 construct": "expressed in transfected cells; host or cells: CHO cells, stably transfected; membrane fractions", "T3 sequence (P08912 1-532)": "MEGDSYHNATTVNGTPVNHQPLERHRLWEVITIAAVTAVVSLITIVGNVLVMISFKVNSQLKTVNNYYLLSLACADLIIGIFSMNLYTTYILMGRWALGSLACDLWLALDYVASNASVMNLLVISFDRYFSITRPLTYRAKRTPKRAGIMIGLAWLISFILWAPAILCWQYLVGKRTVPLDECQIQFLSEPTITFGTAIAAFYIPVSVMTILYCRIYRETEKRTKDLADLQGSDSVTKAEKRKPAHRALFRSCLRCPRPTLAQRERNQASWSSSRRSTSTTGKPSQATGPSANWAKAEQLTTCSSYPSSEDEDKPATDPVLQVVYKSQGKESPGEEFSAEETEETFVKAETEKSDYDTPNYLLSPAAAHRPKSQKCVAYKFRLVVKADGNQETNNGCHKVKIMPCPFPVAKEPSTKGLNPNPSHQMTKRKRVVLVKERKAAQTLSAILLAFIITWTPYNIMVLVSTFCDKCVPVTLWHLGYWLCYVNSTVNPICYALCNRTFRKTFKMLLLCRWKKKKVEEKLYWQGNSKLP", "assay": "One point kinetic (off-rate) assay of [3H]-NMS dissociation", "assay_type": "binding", "settings": "read-out: log Kocc hM5 (converted)", "description": "as §1\n(§5) Off-rate assays were performed as described elsewhere to estimate the affinity of the ligands for the [^3H]-NMS-occupied receptor (log Kocc). Briefly, a high concentration of membranes (about 0.1 mg/mL) was incubated with a high concentration of [^3H]-NMS (2 nM) for 60 min at room temperature (mix membrane). Next, 100 µL aliquots were distributed into polypropylene tubes that were empty or in a final volume of 1 mL binding buffer with 1 µM atropine alone and in the presence of a range of concentrations of tested compound (1 nM–0.1 mM).\n(§6) The effect on the radioligand dissociation of each tested ligand was determined at 0 min and at one time point, which was chosen to be ca 2.5 dissociation half-lives of [^3H]-NMS alone from each subtype receptors. Later (80 min for hM1, 20 min for hM2 and 70 min for hM5), the samples were filtered and counted as previously reported. Non specific binding was measured as previously reported.\nData from one-point kinetic experiments were analyzed in order to obtain estimates of the affinity of an allosteric ligand for the [^3H]-NMS occupied receptor (log Kocc) in a single step, using an equation introduced in GraphPad Prism 5.02 [33, 34].\nas §4"}, "[2]": {"target": "T4, [3H]-NMS-occupied muscarinic hM2 subtype (Homo sapiens, UniProt P08172)", "T4 construct": "expressed in transfected cells; host or cells: CHO cells, stably transfected; membrane fractions", "T4 sequence (P08172 1-466)": "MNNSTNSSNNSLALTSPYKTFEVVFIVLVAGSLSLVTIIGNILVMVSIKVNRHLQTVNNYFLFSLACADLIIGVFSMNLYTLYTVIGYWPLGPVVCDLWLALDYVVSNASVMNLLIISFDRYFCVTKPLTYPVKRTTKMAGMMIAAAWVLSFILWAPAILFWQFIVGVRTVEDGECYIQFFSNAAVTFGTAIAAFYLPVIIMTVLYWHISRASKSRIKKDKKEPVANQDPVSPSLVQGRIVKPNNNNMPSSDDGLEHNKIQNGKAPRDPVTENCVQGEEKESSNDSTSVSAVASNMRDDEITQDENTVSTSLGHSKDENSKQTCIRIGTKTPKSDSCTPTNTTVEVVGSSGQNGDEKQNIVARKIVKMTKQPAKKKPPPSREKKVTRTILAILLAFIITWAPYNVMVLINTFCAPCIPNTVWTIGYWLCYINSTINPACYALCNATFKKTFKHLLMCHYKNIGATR", "assay": "One point kinetic (off-rate) assay of [3H]-NMS dissociation", "assay_type": "binding", "description": "as §1, §5, §6, §4"}},
  "data": [
    {"smiles": "Cc1cc(N)c2ccccc2[n+]1CCCCCCCCCC[n+]1c(C)cc(N)c2ccccc21", "note": "[dequalinium]", "values": [
      {"measurement": "Ki", "setting": "hM3 muscarinic receptor", "result": 170, "unit": "nM"},
      {"measurement": "Ki", "setting": "hM1 muscarinic receptor", "result": 41.7, "unit": "nM"},
      {"measurement": "Kd", "setting": "[1]", "result": 3310, "unit": "nM"},
      {"measurement": "selectivity ratio hM2/hM1", "setting": "[2]; from log Kocc values", "result": 10.7},
      {"measurement": "selectivity ratio hM2/hM5", "setting": "[2]; from log Kocc values", "result": 174},
      {"measurement": "Kd", "setting": "[2]; read-out: Log Kocc hM2 (converted)", "result": 19.1, "unit": "nM"}
    ]}
  ]
}
